Measured values reported in patent US12570642B2, “GLP-IR modulating compounds” (Gilead Sciences, Inc., priority 2021, dated 2026).

Biological target: GLP-1R (Homo sapiens, UniProt P43220)
Experiment: GLP-1R Activation - cAMP Assay
Assay type: cell-based
Conditions: each compound run on one of the two cAMP assays (Assay 1 or Assay 2, not specified)
In short: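 cAMP rise read by HTRF after 30 min agonist exposure (10-point titration, 37 °C) in HBSS/20 mM Hepes/0.1% BSA, following 1 h pre-incubation. Cells: stable GLP-1R CHO line, 1,000/well, seeded overnight. Sigmoidal fit of response vs log concentration gives EC50.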

[1] = cAMP increase in CHO cells stably expressing GLP-1R

GLP-1R, sequence (P43220 24-463): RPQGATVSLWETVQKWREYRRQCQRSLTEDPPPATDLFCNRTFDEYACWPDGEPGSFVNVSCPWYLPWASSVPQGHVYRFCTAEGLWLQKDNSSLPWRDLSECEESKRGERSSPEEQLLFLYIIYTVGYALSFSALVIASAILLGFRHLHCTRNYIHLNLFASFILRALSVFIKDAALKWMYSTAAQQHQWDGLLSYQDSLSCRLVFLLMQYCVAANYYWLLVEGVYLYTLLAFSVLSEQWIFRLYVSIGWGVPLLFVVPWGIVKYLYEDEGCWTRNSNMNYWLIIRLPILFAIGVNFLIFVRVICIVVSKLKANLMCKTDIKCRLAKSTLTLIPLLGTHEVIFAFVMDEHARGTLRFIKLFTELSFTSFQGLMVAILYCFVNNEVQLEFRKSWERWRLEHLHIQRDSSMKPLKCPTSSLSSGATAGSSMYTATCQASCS

Row | SMILES | EC50 [1] [nM] | EC50 ([…]) [nM]
1 | N#Cc1ccc(COc2cccc(-c3cc(F)c(Cc4nc5ccc(C(=O)O)cc5n4[C@H]4CCOC4)cc3F)n2)c(F)c1 [Example 1, (S)-2-(4-(6-((4-cyano-2-fluorobenzyl)oxy)pyridin-2-yl)-2,5-difluorobenzyl)-1-(tetrahydrofuran-3-yl)-1H-benzo[d]imidazole-6-carboxylic acid] | 1.12 | –
2 | N#Cc1ccc(COc2cccc(-c3cc(F)c(Cc4nc5ccc(C(=O)O)cc5n4[C@@H]4CNC(=O)C4)cc3F)n2)c(F)c1 [Example 2, (S)-2-(4-(6-((4-cyano-2-fluorobenzyl)oxy)pyridin-2-yl)-2,5-difluorobenzyl)-1-(5-oxopyrrolidin-3-yl)-1H-benzo[d]imidazole-6-carboxylic acid] | – | 156
3 | N#Cc1ccc(COc2cccc(-c3cc(F)c(Cc4nc5ccc(C(=O)O)cc5n4[C@H]4CNC(=O)C4)cc3F)n2)c(F)c1 [Example 3, (R)-2-(4-(6-((4-cyano-2-fluorobenzyl)oxy)pyridin-2-yl)-2,5-difluorobenzyl)-1-(5-oxopyrrolidin-3-yl)-1H-benzo[d]imidazole-6-carboxylic acid] | – | 11.5
4 | N#Cc1ccc(COc2cccc(-c3cc(F)c(Cc4nc5ccc(C(=O)O)cc5n4[C@@H]4C[C@@H]4C(F)F)cc3F)n2)c(F)c1 [Example 4, 2-(4-(6-((4-cyano-2-fluorobenzyl)oxy)pyridin-2-yl)-2,5-difluorobenzyl)-1-((1R,2S)-2-(difluoromethyl)cyclopropyl)-1H-benzo[d]imidazole-6-carboxylic acid] | 2.65 | –
5 | N#Cc1ccc(COc2cccc(-c3cc(F)c(Cc4nc5ccc(C(=O)O)cc5n4[C@@H]4CCOC4)cc3F)n2)c(F)c1 [Example 5, (R)-2-(4-(6-((4-cyano-2-fluorobenzyl)oxy)pyridin-2-yl)-2,5-difluorobenzyl)-1-(tetrahydrofuran-3-yl)-1H-benzo[d]imidazole-6-carboxylic acid] | 0.77 | –
6 | N#Cc1ccc(COc2cccc(-c3cc(F)c(Cc4nc5ccc(C(=O)O)cc5n4C4CCCC4)cc3F)n2)c(F)c1 [Example 6, 2-(4-(6-((4-cyano-2-fluorobenzyl)oxy)pyridin-2-yl)-2,5-difluorobenzyl)-1-cyclopentyl-1H-benzo[d]imidazole-6-carboxylic acid] | 8.49 | –
7 | COCCn1c(Cc2cc(F)c(-c3cccc(OCc4ccc(-c5cnn(C(F)(F)F)c5)cc4F)n3)cc2F)nc2ccc(C(=O)O)cc21 [Example 7, 2-(2,5-difluoro-4-(6-((2-fluoro-4-(1-(trifluoromethyl)-1H-pyrazol-4-yl)benzyl)oxy)pyridin-2-yl)benzyl)-1-(2-methoxyethyl)-1H-benzo[d]imidazole-6-carboxylic acid] | 0.6 | –
8 | CC1(C)COC[C@@H]1n1c(Cc2cc(F)c(-c3cccc(OCc4ccc(C#N)cc4F)n3)cc2F)nc2c(F)cc(C(=O)O)cc21 [Example 11, (R)-2-(4-(6-((4-cyano-2-fluorobenzyl)oxy)pyridin-2-yl)-2,5-difluorobenzyl)-1-(4,4-dimethyltetrahydrofuran-3-yl)-4-fluoro-1H-benzo[d]imidazole-6-carboxylic Acid] | 0.26 | –
9 | CC1(C)COC[C@H]1n1c(Cc2cc(F)c(-c3cccc(OCc4ccc(C#N)cc4F)n3)cc2F)nc2c(F)cc(C(=O)O)cc21 [Example 12, (S)-2-(4-(6-((4-cyano-2-fluorobenzyl)oxy)pyridin-2-yl)-2,5-difluorobenzyl)-1-(4,4-dimethyltetrahydrofuran-3-yl)-4-fluoro-1H-benzo[d]imidazole-6-carboxylic Acid] | 0.03 | –
10 | CC1(C)COCC1n1c(Cc2cc(F)c(-c3cccc(OCc4ccc(C#N)cc4F)n3)cc2F)nc2c(Br)cc(C(=O)O)cc21 (centres unmarked) [Example 13, 4-bromo-2-(4-(6-((4-cyano-2-fluorobenzyl)oxy)pyridin-2-yl)-2,5-difluorobenzyl)-1-(4,4-dimethyltetrahydrofuran-3-yl)-1H-benzo[d]imidazole-6-carboxylic Acid] | 0.19 | –
11 | CC(=O)N1C[C@H](n2c(Cc3cc(F)c(-c4cccc(OCc5ccc(C#N)cc5F)n4)cc3F)nc3ccc(C(=O)O)cc32)C2(CC2)C1 [Example 14] | – | 78.7
